{"source": "patent US6440391B1", "about": "“Management of snoring by oral administration of dimethyl sulfone” (Elstan Corporation, priority 2000, dated 2002)", "key": {"snoring [1]": {"system": "snoring", "experiment": "Oral spray of methylsulfonylmethane solution onto the oropharynx before sleep; snoring observed by subject's mate", "format": "in vivo, human", "parameters": "key to Results (relief of snoring): FR = Full Relief; MR = Moderate Relief; NR = No Relief", "settings": "for Results (relief of snoring): one line per subject", "method": "The initial experiments to determine effectiveness of the instillation of methylsulfonylmethane as a snoring reduction agent was carried out with an initial sampling of 10 individuals.\nIn each of the above cases, the subject was instructed to spray the solution containing the methylsulfonylmethane four (4) times into the oropharynx approximately fifteen (15) minutes to thirty (30) minutes prior to retiring for sleep. Each spray contained about 0.2 ml; to 0.25 ml of the solution. Thus, the total amount instilled is about 0.8 ml to […]. The observation of the presence or absence of snoring was made by the subject's mate. The observing party was not told that the subject was employing […] methylsulfonylmethane. As noted in Table I, 70% of the subject's mates reported the lessening or absence of snoring while 30% reported no benefit from the oral administration of the methylsulfonylmethane.\nThe seven patients who reported full relief or moderate relief where thereafter provided with a saline spray as a placebo without their knowledge. In each case the snoring returned. They were again given the methylsulfonylmethane spray and 70% again achieve full relief.\nA second sampling of subjects was undertaken wherein the weight percentage of methylsulfonylmethane in water was varied at 1%, 5% and 10%.\nBy warming the solution of water and methylsulfonylmethane to no more than about 37° C. (98.6° F.), a greater concentration of methylsulfonylmethane will go into solution."}, "snoring [2]": {"system": "snoring", "settings": "cited from earlier work"}, "[3]": {"settings": "15% MSM, oral spray, 10 individuals (Table I)"}}, "note": "Values joined by “and” are separate entries in the source; they are usually repeats but may differ in a detail not shown here. Identical values can stand only once."}
{"smiles": "CS(C)(=O)=O", "note": "[MSM, methylsulfonylmethane]", "values": [{"measurement": "Results (relief of snoring)", "setting": "snoring [1]; 1% MSM by weight in water, oral", "result": "FR and NR (3×)"}, {"measurement": "relief of snoring at lowest concentration", "setting": "snoring [1]; 1% by weight in water, oral, Table II", "result": "the relief was not reported to be as dramatic as at higher concentrations"}, {"measurement": "effectiveness of concentration range against snoring", "setting": "snoring [1]; 1%-20% by weight in water, oral, Tables I-III", "result": "effective"}, {"measurement": "Results (relief of snoring)", "setting": "snoring [1]; 5% MSM by weight in water, oral", "result": "NR (2×) and FR (2×)"}, {"measurement": "Results (relief of snoring)", "setting": "snoring [1]; 10% MSM by weight in water, oral", "result": "FR (3×) and NR"}, {"measurement": "Results (relief of snoring)", "setting": "snoring [1]; 15% MSM by weight, oral spray 4 times (0.8-1.2 ml) 15-30 min before sleep", "result": "FR (6×) and NR (3×) and MR"}, {"measurement": "subject's mates reporting lessening or absence of snoring", "setting": "snoring [1]; [3]", "result": 70, "unit": "%"}, {"measurement": "subject's mates reporting no benefit", "setting": "snoring [1]; [3]", "result": 30, "unit": "%"}, {"measurement": "Results (relief of snoring)", "setting": "snoring [1]; 20% MSM by weight in water, solution warmed to no more than about 37° C., oral", "result": "FR"}, {"measurement": "patients again achieving full relief when given the spray again", "setting": "snoring [1]; the seven responders, re-given MSM spray after saline placebo (snoring returned on placebo)", "result": 70, "unit": "%"}, {"measurement": "effectiveness of intranasal treatment", "setting": "snoring [2]; 1% to 20% by weight, drops into the nasal cavity", "result": "highly effective"}, {"measurement": "time interval of reduced snoring", "setting": "snoring [2]; nasal administration saturating mucous membranes of the nasal passageways", "result": "8 to 12", "unit": "h"}, {"measurement": "local tolerability on nasal instillation", "setting": "snoring [2]; nasal route, some individuals", "result": "slight burning sensation"}]}
